Test results published in ChEMBL document CHEMBL3808373 (Bioorg Med Chem Lett, 2016).
Active and inactive are the calls of the source. No cut-off for these calls is given here.

Experiments:
[1] = target: T1, Sodium channel protein type 5 subunit alpha (Homo sapiens, UniProt Q14524); assay: (§1) Inhibition of 0.1 Hz stimulated human Nav1.5alpha expressed in HEK293 cells assessed as inhibition of late sodium current at 300 nM with 3 compound additions for 7 to 8 mins at holding potential -120 mV in presence of late sodium current activator tefluthrin/ATX2 measured immediately after third compound addition by PatchXpress method relative to control; assay type: cell-based
T1 sequence (Q14524 whole entry): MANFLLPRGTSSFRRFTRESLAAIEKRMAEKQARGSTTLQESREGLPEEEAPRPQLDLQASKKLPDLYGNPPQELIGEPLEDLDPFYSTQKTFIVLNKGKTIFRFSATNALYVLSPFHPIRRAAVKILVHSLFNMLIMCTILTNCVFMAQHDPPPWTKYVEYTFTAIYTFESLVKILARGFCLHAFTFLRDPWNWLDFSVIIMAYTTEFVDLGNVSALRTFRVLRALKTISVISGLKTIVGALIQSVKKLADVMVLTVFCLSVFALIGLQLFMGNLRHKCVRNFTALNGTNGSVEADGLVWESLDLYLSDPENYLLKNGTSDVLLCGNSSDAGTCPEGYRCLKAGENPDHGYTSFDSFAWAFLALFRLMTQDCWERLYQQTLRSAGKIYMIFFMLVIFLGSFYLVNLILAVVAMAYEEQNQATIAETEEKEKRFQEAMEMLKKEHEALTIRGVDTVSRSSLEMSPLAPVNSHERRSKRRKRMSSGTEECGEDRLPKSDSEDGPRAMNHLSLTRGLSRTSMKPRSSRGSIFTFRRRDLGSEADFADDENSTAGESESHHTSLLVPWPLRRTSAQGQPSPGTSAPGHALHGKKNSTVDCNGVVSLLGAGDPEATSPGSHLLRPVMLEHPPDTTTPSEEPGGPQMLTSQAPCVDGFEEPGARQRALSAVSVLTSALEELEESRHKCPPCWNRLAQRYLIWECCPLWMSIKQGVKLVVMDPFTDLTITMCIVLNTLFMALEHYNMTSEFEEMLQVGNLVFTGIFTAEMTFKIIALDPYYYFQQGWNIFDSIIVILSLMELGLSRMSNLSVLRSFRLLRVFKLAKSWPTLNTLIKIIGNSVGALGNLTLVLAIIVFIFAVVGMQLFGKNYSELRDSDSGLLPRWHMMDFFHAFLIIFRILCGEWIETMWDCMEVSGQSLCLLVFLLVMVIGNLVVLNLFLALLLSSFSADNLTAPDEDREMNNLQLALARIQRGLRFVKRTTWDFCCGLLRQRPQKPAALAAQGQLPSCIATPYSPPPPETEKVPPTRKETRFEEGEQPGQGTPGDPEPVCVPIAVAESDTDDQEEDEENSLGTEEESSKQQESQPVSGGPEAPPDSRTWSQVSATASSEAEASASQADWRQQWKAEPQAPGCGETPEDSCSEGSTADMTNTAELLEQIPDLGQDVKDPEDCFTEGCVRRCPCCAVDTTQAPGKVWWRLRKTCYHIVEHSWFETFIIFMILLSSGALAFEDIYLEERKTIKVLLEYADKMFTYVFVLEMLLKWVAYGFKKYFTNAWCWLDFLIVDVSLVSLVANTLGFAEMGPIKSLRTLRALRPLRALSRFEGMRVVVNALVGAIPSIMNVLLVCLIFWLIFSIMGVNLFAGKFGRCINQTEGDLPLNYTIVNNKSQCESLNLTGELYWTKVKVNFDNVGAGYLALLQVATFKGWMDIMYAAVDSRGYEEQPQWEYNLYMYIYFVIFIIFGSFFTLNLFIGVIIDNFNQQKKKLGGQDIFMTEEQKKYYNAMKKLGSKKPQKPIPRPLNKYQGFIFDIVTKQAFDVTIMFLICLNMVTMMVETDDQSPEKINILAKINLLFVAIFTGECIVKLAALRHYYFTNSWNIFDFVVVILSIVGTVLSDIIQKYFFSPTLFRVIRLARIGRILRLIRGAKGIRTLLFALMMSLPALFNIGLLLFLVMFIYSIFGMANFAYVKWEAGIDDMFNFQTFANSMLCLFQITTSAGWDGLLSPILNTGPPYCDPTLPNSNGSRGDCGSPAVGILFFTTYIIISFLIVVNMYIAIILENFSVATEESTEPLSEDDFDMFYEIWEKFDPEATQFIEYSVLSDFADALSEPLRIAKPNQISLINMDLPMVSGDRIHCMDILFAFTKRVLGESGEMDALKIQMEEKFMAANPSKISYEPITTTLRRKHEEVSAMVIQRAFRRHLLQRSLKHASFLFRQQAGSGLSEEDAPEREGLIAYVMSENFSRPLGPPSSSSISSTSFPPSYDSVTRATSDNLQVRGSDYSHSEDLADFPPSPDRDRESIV

[2] = target: T2, Sodium channel protein type 1 subunit alpha (Homo sapiens, UniProt P35498); assay: Inhibition of 10 Hz stimulated Nav1.1 (unknown origin) assessed as inhibition of peak sodium current at 10 uM by automated patch clamp method relative to control
[3] = Half life in human microsomes; assay type: ADME, Microsome
[4] = target: T3, Nav1.5 (peak sodium current, use-dependent block) (Homo sapiens, UniProt Q14524); assay: (§2) Inhibition of 3 Hz stimulated human Nav1.5alpha expressed in HEK293 cells assessed as use dependent block of peak sodium current at 1 uM with 3 compound additions at 60 sec intervals at holding potential -100 mV incubated for 320 sec after third compound addition followed by second period of 3 Hz stimulation by PatchXpress method relative to control; assay type: cell-based; conditions: HEK293 cells expressing human Nav1.5alpha
T3 sequence (Q14524 whole entry): as above

[5] = Half life in rat microsomes; assay type: ADME, Microsome
[6] = Half life in dog microsomes; assay type: ADME, Canis lupus familiaris, Microsome
[7] = target: T1, Sodium channel protein type 5 subunit alpha; conditions: HEK293, human, read-out: INH
Description: Inhibition of 0.1 Hz stimulated human Nav1.5alpha expressed in HEK293 cells assessed as inhibition of late sodium current at 10 uM with 3 compound additions for 7 to 8 mins at holding potential -120 mV in presence of late sodium current activator tefluthrin/ATX2 measured immediately after third compound addition by PatchXpress method relative to control

[8] = target: T1, Sodium channel protein type 5 subunit alpha; assay: as §1, with “current” for “current at 300 nM”, “method” for “method relative to control”; assay type: cell-based
[9] = Lipophilicity, log D of compound; assay type: physicochemical; conditions: octanol/water
[10] = target: T3, Nav1.5 (peak sodium current, use-dependent block); assay: as §2, with “at 10” for “at 1”; assay type: cell-based; conditions: HEK293 cells expressing human Nav1.5alpha
Oryctolagus cuniculus = species: Oryctolagus cuniculus; assay: Inhibition of Nav1.5 in isolated rabbit heart assessed as inhibition of ATX2-induced prolongation of mean action potential duration at 10 to 100000 nM relative to control
Heart [11] = assay: Protection against […]/clofilium-induced ventricular arrhythmias in isolated rabbit heart assessed as torsade des pointes at 14 uM relative to control; assay type: functional, Oryctolagus cuniculus, Cardiac ventricle
[12] = Plasma protein binding in human; assay type: ADME, cell-free; conditions: read-out: PPB (converted)
[13] = Plasma protein binding in rabbit; assay type: ADME, cell-free, Oryctolagus cuniculus; conditions: read-out: PPB (converted)
[14] = Inhibition of Nav1.5 in isolated rabbit heart assessed as inhibition of ATX2-induced prolongation of mean action potential duration; conditions: Oryctolagus cuniculus
Heart [15] = assay: Protection against […]/clofilium-induced ventricular arrhythmias in isolated rabbit heart assessed as inhibition of torsade des pointes at 3 uM; assay type: functional, tissue-based; conditions: Oryctolagus cuniculus, Cardiac ventricle
[16] = Ratio of drug level in brain to plasma in rat; assay type: ADME, cell-free; conditions: read-out: BPR
[17] = Ratio of drug level in brain to plasma in dog; assay type: ADME, cell-free, Canis lupus familiaris; conditions: read-out: BPR
Rattus norvegicus = species: Rattus norvegicus; assay: Toxicity in rat assessed as liver lesions after 7 days; assay type: organism-based; conditions: in vivo, 168 h
[18] = target: T1, Sodium channel protein type 5 subunit alpha; assay: as §1, with “1 uM” for “300 nM”; assay type: cell-based
[19] = target: T1, Sodium channel protein type 5 subunit alpha; assay: Inhibition of Nav1.5 (unknown origin) assessed as inhibition of late sodium current by manual patch clamp method
[20] = target: T1, Sodium channel protein type 5 subunit alpha; assay: Inhibition of 1 Hz stimulated Nav1.5 (unknown origin) assessed as inhibition of peak sodium current by manual patch clamp method
[21] = target: T1, Sodium channel protein type 5 subunit alpha; assay: Inhibition of 3 Hz stimulated Nav1.5 (unknown origin) assessed as inhibition of peak sodium current by manual patch clamp method
[22] = target: T2, Sodium channel protein type 1 subunit alpha; assay: Inhibition of 1 Hz stimulated Nav1.1 (unknown origin) by manual patch clamp method
[23] = target: T2, Sodium channel protein type 1 subunit alpha; assay: Inhibition of 10 Hz stimulated Nav1.1 (unknown origin) by manual patch clamp method
[24] = target: Voltage-gated inwardly rectifying potassium channel KCNH2 (Homo sapiens, UniProt Q12809); assay: Inhibition of human ERG
[25] = target: T4, Sodium channel protein type 2 subunit alpha (Homo sapiens, UniProt Q99250); assay: Inhibition of 1 Hz stimulated Nav1.2 (unknown origin) by manual patch clamp method
[26] = target: T4, Sodium channel protein type 2 subunit alpha; assay: Inhibition of 10 Hz stimulated Nav1.2 (unknown origin) by manual patch clamp method
[27] = Clearance in rat microsomes; assay type: ADME, Microsome
[28] = Clearance in dog microsomes; assay type: ADME, Canis lupus familiaris, Microsome
[29] = Clearance in cynomolgus monkey microsomes; assay type: ADME, Macaca fascicularis, Microsome
[30] = Clearance in human microsomes; assay type: ADME, Microsome
[31] = Clearance in rat; assay type: ADME, organism-based; conditions: in vivo
[32] = Clearance in dog; assay type: ADME, organism-based, Canis lupus familiaris; conditions: in vivo
[33] = Clearance in cynomolgus monkey; assay type: ADME, organism-based, Macaca fascicularis; conditions: in vivo
[34] = Terminal half life in rat; assay type: ADME, organism-based; conditions: in vivo, read-out: beta t1/2 (converted)
[35] = Clearance in rabbit; assay type: ADME, organism-based, Oryctolagus cuniculus; conditions: in vivo
[36] = Terminal half life in dog; assay type: ADME, organism-based, Canis lupus familiaris; conditions: in vivo, read-out: beta t1/2 (converted)
[37] = Terminal half life in monkey; assay type: ADME, organism-based, Macaca mulatta; conditions: rhesus monkey, in vivo; read-out: beta t1/2 (converted)
[38] = Terminal half life in rabbit; assay type: ADME, organism-based, Oryctolagus cuniculus; conditions: in vivo, read-out: beta t1/2 (converted)
[39] = Volume of distribution in rat; assay type: ADME, organism-based; conditions: in vivo
[40] = Volume of distribution in dog; assay type: ADME, organism-based, Canis lupus familiaris; conditions: in vivo
[41] = Volume of distribution in cynomolgus monkey; assay type: ADME, organism-based, Macaca fascicularis; conditions: in vivo
[42] = Volume of distribution in rabbit; assay type: ADME, organism-based, Oryctolagus cuniculus; conditions: in vivo
[43] = Oral bioavailability in rat; assay type: ADME, organism-based; conditions: in vivo
[44] = Oral bioavailability in dog; assay type: ADME, organism-based, Canis lupus familiaris; conditions: in vivo
[45] = Plasma protein binding in rat; assay type: ADME, cell-free; conditions: read-out: PPB (converted)
[46] = Plasma protein binding in dog; assay type: ADME, cell-free, Canis lupus familiaris; conditions: read-out: PPB (converted)

Cc1nc(Cn2nc3ccc(-c4ccc(Oc5ccc(Cl)cc5)cc4)cn3c2=O)no1 gave an inhibition at 0.3 µM [1] of 60%, an inhibition [2] of 79% and a half-life [3] of 6.58 h. The inhibition at 320 s, 1 µM [4] was 40%, the half-life [5] was 6.5 h and the half-life [6] was 5.9 h. For the same molecule, the inhibition at 10 µM [7] was no less than 70%.
For Cc1noc(Cn2nc3ccc(-c4ccc(Oc5ccc(Cl)cc5)cc4)cn3c2=O)n1, the IC50 [8] was 134 µM, the inhibition [2] was 42% and the half-life [3] was 0.75 h. The inhibition at 320 s, 1 µM [4] was 47%, the half-life [5] was 0.567 h and the half-life [6] was 1.57 h. The logD [9] was 3.4 and the inhibition at 10 µM [7] was no less than 70%.
In the case of O=c1n(Cc2noc(CO)n2)nc2ccc(-c3ccc(Oc4ccc(F)cc4)cc3)cn12, the IC50 [8] is reported as 981 µM, the inhibition at 320 s, 10 µM [10] is reported as 21% and the inhibition [2] is reported as 56%. For the same molecule, the half-life [3] was 1.35 h, the half-life [5] was 0.533 h and the half-life [6] was 3.02 h. It also gave a logD [9] of 2.8 and an inhibition at 10 µM [7] of no less than 70%.
In the case of CCc1noc(Cn2nc3ccc(-c4ccc(OC(F)(F)F)cc4)cn3c2=O)n1, the IC50 [8] is reported as 4 µM and the inhibition at 10 µM [7] is reported as no less than 70%.
In the case of Cc1cc(Cn2nc3ccc(-c4ccc(OC(F)(F)F)cc4)cn3c2=O)on1, the IC50 [8] is reported as greater than 10 µM.
In the case of COc1ccccc1OCC(O)CN1CCN(CC(=O)Nc2c(C)cccc2C)CC1 (stereo not drawn) [RANOLAZINE], the inhibition (Oryctolagus cuniculus) is reported as 60% and the Activity (Heart [11]) is reported as 40%.
Molecule O=c1[nH]nc2ccc(-c3ccc(Oc4ccc(F)cc4)cc3)cn12 has an IC50 [8] of 1900 µM, an inhibition [2] of 40% and a half-life [3] of 6.58 h. For the same molecule, the inhibition at 320 s, 1 µM [4] was 28%, the half-life [5] was 0.717 h and the half-life [6] was 4.55 h. For the same molecule, the inhibition at 10 µM [7] was no less than 70%.
Molecule O=c1n(Cc2nc(-c3c(Cl)cccc3Cl)no2)nc2ccc(-c3ccc(OC(F)(F)F)cc3)cn12 has an IC50 [8] of 3.5 µM and an inhibition at 10 µM [7] of no less than 70%.
Cc1noc(Cn2nc3ccc(-c4ccc(OC(F)(F)F)cc4)cn3c2=O)n1 gave a fraction unbound [12] of 0.05, a fraction unbound [13] of 0.043 and an inhibition (Oryctolagus cuniculus) of 90%. For the same molecule, the IC50 [14] was 1.2 µM, the inhibition (Heart [15]) was “Active” and the Kp [16] was greater than 20. The Kp [17] was greater than 20, the Activity (Rattus norvegicus) was “Toxic” and the inhibition at 1 µM [18] was 31%. The IC50 [8] was 1.9 µM, the inhibition at 320 s, 10 µM [10] was 10% and the inhibition [2] was 8%. The half-life [3] was 5.13 h, the half-life [5] was 3.3 h and the half-life [6] was 3.93 h. It also gave an IC50 [19] of 1.33 µM, an IC50 [20] greater than 10 µM and an IC50 [21] greater than 10 µM. For the same molecule, the IC50 [22] was greater than 10 µM, the IC50 [23] was 4.8 µM and the IC50 [24] was greater than 10 µM. It also gave an IC50 [25] of 4.2 µM, an IC50 [26] of 8.1 µM and a CL [27] of 8.67 mL/min/kg. The CL [28] was 4.33 mL/min/kg, the CL [29] was 6.7 mL/min/kg and the CL [30] was 3.5 mL/min/kg. For the same molecule, the clearance [31] was 12 mL/min/kg, the clearance [32] was 7.98 mL/min/kg and the clearance [33] was 7.97 mL/min/kg. It also gave a half-life [34] of 2.1 h, a clearance [35] of 7.03 mL/min/kg and a half-life [36] of 17.3 h. The half-life [37] was 4.78 h, the half-life [38] was 4.81 h and the Vd [39] was 1.95 L/kg. The Vd [40] was 4.23 L/kg, the Vd [41] was 2.29 L/kg and the Vd [42] was 2.24 L/kg. The bioavailability [43] was 44.3%, the bioavailability [44] was 72.8% and the fraction unbound [45] was 0.046. The fraction unbound [46] was 0.057 and the inhibition at 10 µM [7] was no less than 70%.
Molecule Cc1nc(Cn2nc3ccc(-c4ccc(Oc5ccc(F)cc5)cc4)cn3c2=O)no1 has an IC50 [8] of 541 µM, an inhibition [2] of 65% and a half-life [3] of 3.45 h. For the same molecule, the inhibition at 320 s, 1 µM [4] was 46%, the half-life [5] was 2.42 h and the half-life [6] was 2.78 h. The inhibition at 10 µM [7] was no less than 70%.
